Values of other authors as cited in US20180333352A1, “TOPICAL FORMULATIONS AND USES THEREOF” (SUN PHARMA GLOBAL FZE, priority 2015, published 2018).

Tests used:
[1] = tested on: IFNγ, TNFα, IL-2; conditions: in vitro
[2] = tested on: T-cell adhesion to ICAM-1 expressing cells; conditions: in vitro

Structure (SMILES)	Solubility in ethyl alcohol and methyl alcohol (ethyl alcohol, methyl alcohol)	Solubility in water (water)	Secretion of key inflammatory cytokines (IFNγ, TNFα, IL-2) [1]	T-cell adhesion to ICAM-1 expressing cells [2]
CCNC(=O)CCC/C=C\C[C@@H]1[C@@H](/C=C/[C@@H](O)CCc2ccccc2)[C@H](O)C[C@@H]1O [Bimatoprost, (Z)-7-[(1R,2R,3R,5 S)-3,5-Dihydroxy-2 [(1E,3S)-3-hydroxy-5-phenyl-1-pentenyl]cyclopentyl]-5-N-ethylheptenamide]	very soluble	only slightly soluble	–	–
CS(=O)(=O)c1cccc(C[C@H](NC(=O)c2c(Cl)cc3c(c2Cl)CCN(C(=O)c2ccc4ccoc4c2)C3)C(=O)O)c1 [lifitegrast]	–	–	inhibits	inhibits
